Source: ChEMBL document CHEMBL1130805, “The synthesis and evaluation of benzannelated-azatoxins: the benzazatoxins” (Bioorg Med Chem Lett, 1998)
Active and inactive are the calls of the source. The calls are words filed in the database; no cut-off is given here.

Assays:
MCF7 = assay: Compound was evaluated for growth inhibition against MCF-7 cells using cellular assay; assay type: functional; conditions: Homo sapiens
PC-3 = assay: Compound was evaluated for growth inhibition against PC-3 cells using cellular assay; assay type: functional; conditions: Homo sapiens
NCI-H520 = assay: Compound was evaluated for growth inhibition against NCI-H520 cells using cellular assay; assay type: functional; conditions: Homo sapiens
Bos taurus = species: Bos taurus; assay: Compound was evaluated for inhibition of tubulin polymerization in bovine brain tubulin; assay type: functional
[1] = biological target: T1, DNA topoisomerase II (Homo sapiens) (UniProt P11388+Q02880); assay: Compound was evaluated for its ability to affect topoisomerase II inhibition; inactive; assay type: protein assay
[2] = biological target: T1, DNA topoisomerase II (Homo sapiens); assay: Compound was evaluated for its ability to affect topoisomerase II inhibition; active; assay type: protein assay

Row | SMILES | GI50 (MCF7) [µM] | GI50 (PC-3) [µM] | GI50 (NCI-H520) [µM] | IC50 (Bos taurus) [µM] | Activity [1] | Activity [2]
1 | COc1cc([C@@H]2c3[nH]c4ccc5ccccc5c4c3C[C@H]3COC(=O)N32)cc(OC)c1O | 2 | 2 | 0.8 | 5.6 | inactive | –
2 | COc1cc([C@@H]2c3[nH]c4cc5ccccc5cc4c3C[C@H]3COC(=O)N32)cc(OC)c1O | 5 | 10 | 4 | 6.7 | inactive | –
3 | COc1cc([C@@H]2c3[nH]c4c(ccc5ccccc54)c3C[C@H]3COC(=O)N32)cc(OC)c1O | > 50 | > 50 | > 50 | 51 | inactive | –
4 | COc1cc([C@@H]2c3[nH]c4ccccc4c3C[C@H]3COC(=O)N32)cc(OC)c1O | 0.25 | 0.2 | 0.12 | 20.3 | – | Active
5 | COc1cc2c(c(OC)c1OC)-c1ccc(OC)c(=O)cc1[C@@H](NC(C)=O)CC2 [COLCHICINE] | < 0.05 | < 0.05 | < 0.05 | 11.8 | inactive | –
